21 compounds from patent publication US5869489A, “Trypthophan ureas as neurokinnin antagonists” (Merck & Co., Inc., priority 1997, dated 1999) can be followed below.

In one assay the target is T1, human NK1R (Homo sapiens, UniProt P25103).
T1 construct: expressed in transfected cells
As to the kind of experiment: Binding assay of human NK1R expressed in COS or CHO cells, displacement of 125I-substance P (Table 1, hNK1). Here is the method:
(§1) A. Receptor Expression in COS
(§2) To express the cloned human neurokinin-1 receptor (NK 1R) transiently in COS, the cDNA for the human NK 1R was cloned into the expression vector pCDM9 which was derived from pCDM 8 (INVITROGEN) by inserting the ampicillin resistance gene (nucleotide 1973 to 2964 from BLUESCRIPT SK+) into the Sac II site. Transfection of 20 μg of the plasmid DNA into 10 million COS cells was achieved by electroporation in 800 μl of transfection buffer (135 mM NaCl, 1.2 mM CaCl2, 1.2 mM MgCl2, 2.4 mM K2 HPO4, 0.6 mM KH2 PO4, 10 mM glucose, 10 mM HEPES pH 7.4) at 260 V and 950 uF using the IBI GENEZAPPER (IBI, New Haven, Conn.). The cells were incubated in 10% fetal calf serum, 2 mM glutamine, 100 U/ml penicillin-streptomycin, and 90% DMEM media (GIBCO, Grand Island, N.Y.) in 5% CO2 at 37° C. for three days before the binding assay. Similar methods were used to express the NK2 receptor.
(§3) B. Stable Expression in CHO
(§4) To establish a stable cell line expressing the cloned human NK1R, the cDNA was subcloned into the vector pRcCMV (INVITROGEN). Transfection of 20 μg of the plasmid DNA into CHO cells was achieved by electroporation in 800 μl of transfection buffer suplemented with 0.625 mg/ml Herring sperm DNA at 300 V and 950 uF using the IBI GENEZAPPER (IBI). The transfected cells were incubated in CHO media (10% fetal calf serum, 100 U/ml pennicilin-streptomycin, 2 mM glutamine, 1/500 hypoxanthine-thymidine(ATCC), 90% IMDM media (JRH BIOSCIENCES, Lenexa, Kans.), 0.7 mg/ml G418 (GIBCO)) in 5% CO2 at 37° C. until colonies were visible. Each colony was separated and propagated. The cell clone with the highest number of human NK1R was selected for subsequent applications such as drug screening. Similar methods were used to express the human NK2 receptor.
(§5) C. Assay Protocol using COS or CHO The binding assay of human NK1R expressed in either COS or CHO cells is based on the use of ^125 I-substance P (^125 I-SP, from DU PONT, Boston, Mass.) as a radioactively labeled ligand which competes with unlabeled substance P or any other ligand for binding to the human NK1R. […] In the binding assay, 500 μl of cells were added to a tube containing 20 μl of 1.5 to 0.25 nM of ^125 I-SP and 5 μl of unlabeled substance P or any other test compound in DMSO. The tubes were incubated at 4° C. or at room temperature for 1 hour with gentle shaking. The bound radioactivity was separated from unbound radioactivity by GF/C filter (BRANDEL, Gaithersburg, Md.) which was pre-wetted with 0.1% polyethylenimine. The filter was washed with 3 ml of wash buffer (50 mM Tris pH 7.5, 5 mM MnCl2, 150 mM NaCl) three times and its radioactivity was determined by gamma counter. A similar assay was used for NK2 except ^125 I-NKA was used as the ligand.
In general terms: Displacement assays read how much labelled ligand stays bound in the presence of the test substance.

The target in another assay is T2, human NK2 receptor (Homo sapiens, UniProt P21452).
T2 construct: expressed in transfected cells
T2 sequence (P21452 1-398): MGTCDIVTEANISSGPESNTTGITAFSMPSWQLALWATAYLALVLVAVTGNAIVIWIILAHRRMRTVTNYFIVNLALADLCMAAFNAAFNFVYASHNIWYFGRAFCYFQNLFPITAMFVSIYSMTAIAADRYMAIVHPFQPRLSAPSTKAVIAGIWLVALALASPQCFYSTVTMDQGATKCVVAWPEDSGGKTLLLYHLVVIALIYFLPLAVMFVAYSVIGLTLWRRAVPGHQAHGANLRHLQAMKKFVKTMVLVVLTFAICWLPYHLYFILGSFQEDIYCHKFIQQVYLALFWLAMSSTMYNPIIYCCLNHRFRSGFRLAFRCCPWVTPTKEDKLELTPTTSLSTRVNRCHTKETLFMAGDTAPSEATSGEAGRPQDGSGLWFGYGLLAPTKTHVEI
Description: Binding assay of NK2 receptor expressed in COS or CHO cells, displacement of 125I-NKA (Table 1, hNK2). Here is the method:
as §1, §2, §3, §4, §5

Setting [1] is: human NK1 receptor, 125I-substance P ligand, read-out: hNK1 (IC50 nM).
Setting [2] is: human NK2 receptor, 125I-NKA ligand, read-out: hNK2 (IC50 nM).

Like-named read-outs stand apart in the source and are kept apart here.

By IC50 is commonly meant the concentration needed to halve the response being measured.

T1 sequence (P25103 whole entry): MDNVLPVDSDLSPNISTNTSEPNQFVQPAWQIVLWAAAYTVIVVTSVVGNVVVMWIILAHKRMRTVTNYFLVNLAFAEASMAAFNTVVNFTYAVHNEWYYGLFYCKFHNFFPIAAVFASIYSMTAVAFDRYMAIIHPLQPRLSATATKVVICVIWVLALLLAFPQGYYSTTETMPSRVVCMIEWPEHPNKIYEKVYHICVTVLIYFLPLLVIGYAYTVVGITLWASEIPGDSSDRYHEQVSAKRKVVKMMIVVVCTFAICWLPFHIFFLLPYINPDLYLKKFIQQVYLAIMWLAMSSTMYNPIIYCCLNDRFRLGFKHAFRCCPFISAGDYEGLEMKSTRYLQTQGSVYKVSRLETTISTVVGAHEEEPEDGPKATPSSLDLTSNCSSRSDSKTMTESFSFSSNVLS

With `CN(Cc1ccccc1)C(=O)[C@H](Cc1c[nH]c2ccccc12)NC(=O)N1CCC2(CCc3ccccc32)CC1` [Example 4, N-Benzyl-N-methyl-2-(S)-((spiroindane-1,4'-piperidino)-carbonyl-amino)-3-(3-indolyl)propionamide], the IC50 on human NK1R (setting [1]) was found to be 50 nM; on human NK2 receptor (setting [2]) it was 8 nM.

As for “N-(1(S)-phenyl)ethyl-N-methyl-2-(S)-((1-methanesulfonyl-spiroindoline-3,4'- piperidino)-carbonyl-amino)-3-(3-indolyl)propionamide [Example 30]”, the figures for the IC50 at human NK1R (setting [1]) and at human NK2 receptor (setting [2]) were 10 nM and 70 nM, respectively.

“N-(1(R)-Phenylpropyl)-N-methyl-2(S)-((spiroindane-1,4'-piperidino)-carbonyl-amino)-3-(3-indolyl)propionamide [Example 24]”: the 50% inhibitory concentration (IC50) on human NK1R (setting [1]) turned out to be 1000 nM; at human NK2 receptor (setting [2]), 50 nM.

With `Cc1cccc(CN(C)C(=O)[C@H](Cc2c[nH]c3ccccc23)NC(=O)N2CCC3(CC2)CN(S(C)(=O)=O)c2ccccc23)c1` [Example 25, N-(3-Methylphenyl)methyl-N-methyl-2-(S)-((1-methanesulfonyl-spiroindoline-3,4'-piperidino)-carbonyl-amino)-3-(3-indolyl)propionamide], the IC50 at human NK1R (setting [1]) came to 8 nM; at human NK2 receptor (setting [2]) it was 85 nM.

For the compound `Cc1ccccc1N1CCN(C(=O)N[C@@H](Cc2c[nH]c3ccccc23)C(=O)N(C)Cc2ccccc2)CC1` [Example 13, N-Benzyl-N-methyl-2-(S)-((4-(2-methylphenyl)piperazino)-carbonyl-amino)-3-(3-indolyl)propionamide], the IC50 is 30 nM on human NK1R (setting [1]) and 15 nM on human NK2 receptor (setting [2]).

With `Cc1cc(C)cc(CN(C)C(=O)[C@H](Cc2c[nH]c3ccccc23)NC(=O)N2CCC3(CC2)CN(S(C)(=O)=O)c2ccccc23)c1` [Example 28, N-(3,5-Dimethylphenyl)methyl-N-methyl-2-(S)-((1-methanesulfonyl-spiroindoline-3,4'-piperidino)-carbonyl-amino)-3-(3-indolyl)propionamide], the IC50 at human NK1R (setting [1]) was 3 nM; at human NK2 receptor (setting [2]), more than 300 nM.

Consider `CS(=O)(=O)N1CC2(CCN(C(=O)N[C@@H](Cc3c[nH]c4ccccc34)C(=O)NCc3ccccc3)CC2)c2ccccc21` [Example 2, N-Benzyl-2-(S)-((1-methanesulfonyl-spiroindoline-3,4'-piperidino)-carbonyl-amino)-3-(3-indolyl)propionamide], for which the values for the IC50 at human NK1R (setting [1]) and on human NK2 receptor (setting [2]) were 70 nM and 40 nM, respectively.

On to `CN(Cc1ccccc1)C(=O)[C@H](Cc1c[nH]c2ccccc12)NC(=O)N1CCC2(CC1)CN(S(C)(=O)=O)c1ccccc12` [Example 5, N-Benzyl-N-methyl-2-(S)-((1-methanesulfonyl-spiroindoline-3,4'-piperidino)-carbonyl-amino)-3-(3-indolyl)propionamide], for which the IC50 turned out to be 20 nM at human NK1R (setting [1]) and 12 nM on human NK2 receptor (setting [2]).

As to `CN(Cc1ccccc1)C(=O)[C@H](Cc1c[nH]c2ccccc12)NC(=O)N1CCC(N2C(=O)NCc3ccccc32)CC1` [Example 11], the IC50 at human NK1R was 100 nM; on human NK2 receptor, 60 nM.

Turning to `CN(Cc1ccccc1)C(=O)[C@H](CCc1ccccc1)NC(=O)N1CCC2(CC1)CN(S(C)(=O)=O)c1ccccc12` [Example 34, N-Benzyl-N-methyl-2-(S)-((1-methanesulfonyl-spiroindoline-3,4'-piperidino)-carbonyl-amino)-4-phenylbutyramide], the half-maximal inhibitory concentration (IC50) on human NK1R (setting [1]) was 400 nM; at human NK2 receptor (setting [2]), 60 nM.

Take `O=C(OCc1cc(C(F)(F)F)cc(C(F)(F)F)c1)[C@H](Cc1c[nH]c2ccccc12)NC(=O)N1CCC2(C=Cc3ccccc32)CC1` [Example 3, 3,5-Bistrifluoromethylbenzyl 2-(S)-((spiro-1H-indene-1,4'-piperidino)-carbonyl-amino)-3-(3-indolyl)propionate]: the IC50 on human NK1R (setting [1]) was 1 nM; on human NK2 receptor (setting [2]), more than 1000 nM.

Turning to `CN(Cc1ccccc1)C(=O)[C@H](Cc1c[nH]c2ccccc12)NC(=O)N1CCC2(C=Cc3ccccc32)CC1` [Example 1, N-Benzyl-N-methyl-2-(S)-((spiro-1H-indene-1,4'-piperidino)-carbonyl-amino)-3-(3-indolyl)propionamide], the IC50 on human NK1R (setting [1]) was determined as 40 nM; on human NK2 receptor (setting [2]), 10 nM.

As to `CN(Cc1ccccc1)C(=O)[C@H](COCc1ccccc1)NC(=O)N1CCC2(CC1)CN(S(C)(=O)=O)c1ccccc12` [Example 35, N-Benzyl-N-methyl-2-(S)-((1-methanesulfonyl-spiroindoline-1,4'-piperidino)-carbonyl-amino)-3-benzyloxypropionamide], the IC50 on human NK1R (setting [1]) came out at 300 nM; on human NK2 receptor (setting [2]), 60 nM.

In the case of `CN(Cc1ccccc1)C(=O)[C@H](Cc1c[nH]c2ccccc12)NC(=O)N1CCC(c2ccccc2)CC1` [Example 7], the IC50 is 60 nM at human NK1R (setting [1]) and 50 nM on human NK2 receptor (setting [2]).

As to “N-(1(S)-Phenylpropyl)-N-methyl-2(S)-((spiroindane-1,4'-piperidino)-carbonyl-amino)-3-(3-indolyl)propionamide [Example 23]”, the IC50 came to 650 nM on human NK1R (setting [1]) and 30 nM at human NK2 receptor (setting [2]).

Take `CC(=O)N1CC2(CCN(C(=O)N[C@@H](Cc3c[nH]c4ccccc34)C(=O)N(C)Cc3ccccc3)CC2)c2ccccc21` [Example 6, N-Benzyl-N-methyl-2-(S)-((1-acetylspiroindoline-3,4'-piperidino)-carbonyl-amino)-3-(3-indolyl)propionamide]: the IC50 at human NK1R (setting [1]) is 15 nM; at human NK2 receptor (setting [2]), 30 nM.

For `O=C(NCc1ccccc1)[C@H](Cc1c[nH]c2ccccc12)NC(=O)N1CCC2(CCc3ccccc32)CC1` [Example 15, N-Benzyl-2-(S)-((spiroindane-1,4'-piperidino)-carbonyl-amino)-3-(3-indolyl)propionamide], the values for the IC50 on human NK1R (setting [1]) and on human NK2 receptor (setting [2]) were 100 nM and 35 nM, respectively.

Take `C[C@H](NC(=O)[C@H](Cc1c[nH]c2ccccc12)NC(=O)N1CCC2(CCc3ccccc32)CC1)c1ccccc1` [Example 21, N-(1(S)-Phenylethyl)-2(S)-((spiroindane-1,4'-piperidino)-carbonyl-amino)-3-(3-indolyl)propionamide]: the IC50 came out at 80 nM at human NK1R (setting [1]) and 16 nM at human NK2 receptor (setting [2]).

Take `CN(Cc1cc(Cl)cc(Cl)c1)C(=O)[C@H](Cc1c[nH]c2ccccc12)NC(=O)N1CCC2(CC1)CN(S(C)(=O)=O)c1ccccc12` [Example 27, N-(3,5-Dichlorophenyl)methyl-N-methyl-2-(S)-((1-methanesulfonyl-spiroindoline-3,4'-piperidino)-carbonyl-amino)-3-(3-indolyl)propionamide]: the 50% inhibitory concentration (IC50) on human NK1R (setting [1]) came out at 1 nM; at human NK2 receptor (setting [2]), 180 nM.

As for `Cc1cc(Cl)cc(CN(C)C(=O)[C@H](Cc2c[nH]c3ccccc23)NC(=O)N2CCC3(CC2)CN(S(C)(=O)=O)c2ccccc23)c1` [Example 29, N-((3-Chloro-5-methyl)phenyl)methyl-N-methyl-2-(S)-((1-methanesulfonyl-Spiroindoline-3,4'-piperidino)-carbonyl-amino)-3-(3-indolyl)propionamide], the IC50 turned out to be 2 nM on human NK1R (setting [1]) and 500 nM on human NK2 receptor (setting [2]).

`Cc1ccccc1CNC(=O)[C@H](Cc1c[nH]c2ccccc12)NC(=O)N1CCC2(CCc3ccccc32)CC1` [Example 16, N-(2-Methylbenzyl)-2-(S)-((spiroindane-1,4'-piperidino)-carbonyl-amino)-3-(3-indolyl)propionamide]: the IC50 at human NK1R (setting [1]) amounted to 100 nM; on human NK2 receptor (setting [2]), 15 nM.
